From ChEMBL document CHEMBL1208726, “Synthesis and anti-inflammatory activity of some 3-(4,6-disubtituted-2-thioxo-1,2,3,4-tetrahydropyrimidin-5-yl) propanoic acid derivatives” (2010)

Test system: Rattus norvegicus
Assay: Antiinflammatory activity in Albino rat assessed as reduction of carrageenan-induced paw volume at 20 mg/kg, po administered 1 hr before carrageenan challenge measured after 1 hr (reference value: 1.925 +/- 0.1011 ml)
Format: functional

Compound	Activity [mL]
Cc1ccc(C2=C(CCC(=O)O)C(c3ccco3)NC(=S)N2)cc1 (stereo not given)	1.29
COc1ccc(C2=C(CCC(=O)O)C(c3ccccc3O)NC(=S)N2)cc1 (stereo not given)	1.38
O=C(O)CCC1=C(c2ccc(Cl)cc2)NC(=S)NC1c1ccco1 (stereo not given)	1.34
O=C(O)CCC1=C(c2ccc(F)cc2)NC(=S)NC1c1ccco1 (stereo not given)	1.45
O=C(O)CCC1=C(c2ccc(Cl)cc2)NC(=S)NC1c1ccccc1O (stereo not given)	1.74
O=C(O)CCC1=C(c2ccc(Cl)cc2)NC(=S)NC1c1ccccn1 (stereo not given)	1.5
O=C(O)CCC1=C(c2ccccc2)NC(=S)NC1c1ccccc1O (stereo not given)	1.29
COc1cc(C2NC(=S)NC(c3ccc(C)cc3)=C2CCC(=O)O)cc(OC)c1OC (stereo not given)	1.53
COc1cc(C2NC(=S)NC(c3ccc(C)cc3)=C2CCC(=O)O)ccc1O (stereo not given)	1.96
O=C(O)Cc1ccccc1Nc1c(Cl)cccc1Cl [DICLOFENAC]	1.51
O=C(O)CCC1=C(c2ccccc2)NC(=S)NC1c1ccco1 (stereo not given)	1.37

Test system: Rattus norvegicus
Assay: Antiinflammatory activity in Albino rat assessed as reduction of carrageenan-induced paw volume at 20 mg/kg, po administered 1 hr before carrageenan challenge measured after 2 hrs (reference value: 1.905 +/- 0.046 ml)
Format: functional

Compound	Activity [mL]
Cc1ccc(C2=C(CCC(=O)O)C(c3ccco3)NC(=S)N2)cc1 (stereo not given)	1.37
COc1ccc(C2=C(CCC(=O)O)C(c3ccccc3O)NC(=S)N2)cc1 (stereo not given)	1.39
O=C(O)CCC1=C(c2ccc(Cl)cc2)NC(=S)NC1c1ccco1 (stereo not given)	1.56
O=C(O)CCC1=C(c2ccc(F)cc2)NC(=S)NC1c1ccco1 (stereo not given)	1.63
O=C(O)CCC1=C(c2ccc(Cl)cc2)NC(=S)NC1c1ccccc1O (stereo not given)	1.62
O=C(O)CCC1=C(c2ccc(Cl)cc2)NC(=S)NC1c1ccccn1 (stereo not given)	1.49
O=C(O)CCC1=C(c2ccccc2)NC(=S)NC1c1ccccc1O (stereo not given)	1.36
COc1cc(C2NC(=S)NC(c3ccc(C)cc3)=C2CCC(=O)O)cc(OC)c1OC (stereo not given)	1.63
COc1cc(C2NC(=S)NC(c3ccc(C)cc3)=C2CCC(=O)O)ccc1O (stereo not given)	1.87
O=C(O)Cc1ccccc1Nc1c(Cl)cccc1Cl [DICLOFENAC]	1.56
O=C(O)CCC1=C(c2ccccc2)NC(=S)NC1c1ccco1 (stereo not given)	1.49

Test system: Rattus norvegicus
Assay: Antiinflammatory activity in Albino rat assessed as reduction of carrageenan-induced paw volume at 20 mg/kg, po administered 1 hr before carrageenan challenge measured after 3 hrs (reference value: 1.63 +/- 0.059 ml)
Format: functional

Compound	Activity [mL]
Cc1ccc(C2=C(CCC(=O)O)C(c3ccco3)NC(=S)N2)cc1 (stereo not given)	1.46
COc1ccc(C2=C(CCC(=O)O)C(c3ccccc3O)NC(=S)N2)cc1 (stereo not given)	1.29
O=C(O)CCC1=C(c2ccc(Cl)cc2)NC(=S)NC1c1ccco1 (stereo not given)	1.54
O=C(O)CCC1=C(c2ccc(F)cc2)NC(=S)NC1c1ccco1 (stereo not given)	1.57
O=C(O)CCC1=C(c2ccc(Cl)cc2)NC(=S)NC1c1ccccc1O (stereo not given)	1.61
O=C(O)CCC1=C(c2ccc(Cl)cc2)NC(=S)NC1c1ccccn1 (stereo not given)	1.54
O=C(O)CCC1=C(c2ccccc2)NC(=S)NC1c1ccccc1O (stereo not given)	1.42
COc1cc(C2NC(=S)NC(c3ccc(C)cc3)=C2CCC(=O)O)cc(OC)c1OC (stereo not given)	1.37
COc1cc(C2NC(=S)NC(c3ccc(C)cc3)=C2CCC(=O)O)ccc1O (stereo not given)	1.79
O=C(O)Cc1ccccc1Nc1c(Cl)cccc1Cl [DICLOFENAC]	1.29
O=C(O)CCC1=C(c2ccccc2)NC(=S)NC1c1ccco1 (stereo not given)	1.47

Test system: Rattus norvegicus
Assay: Antiinflammatory activity in Albino rat assessed as reduction of carrageenan-induced paw volume at 20 mg/kg, po administered 1 hr before carrageenan challenge measured after 4 hrs (reference value: 1.44 +/- 0.046 ml)
Format: functional

Compound	Activity [mL]
Cc1ccc(C2=C(CCC(=O)O)C(c3ccco3)NC(=S)N2)cc1 (stereo not given)	1.38
COc1ccc(C2=C(CCC(=O)O)C(c3ccccc3O)NC(=S)N2)cc1 (stereo not given)	1.33
O=C(O)CCC1=C(c2ccc(Cl)cc2)NC(=S)NC1c1ccco1 (stereo not given)	1.47
O=C(O)CCC1=C(c2ccc(F)cc2)NC(=S)NC1c1ccco1 (stereo not given)	1.56
O=C(O)CCC1=C(c2ccc(Cl)cc2)NC(=S)NC1c1ccccc1O (stereo not given)	1.58
O=C(O)CCC1=C(c2ccc(Cl)cc2)NC(=S)NC1c1ccccn1 (stereo not given)	1.6
O=C(O)CCC1=C(c2ccccc2)NC(=S)NC1c1ccccc1O (stereo not given)	1.49
COc1cc(C2NC(=S)NC(c3ccc(C)cc3)=C2CCC(=O)O)cc(OC)c1OC (stereo not given)	1.44
COc1cc(C2NC(=S)NC(c3ccc(C)cc3)=C2CCC(=O)O)ccc1O (stereo not given)	1.69
O=C(O)Cc1ccccc1Nc1c(Cl)cccc1Cl [DICLOFENAC]	1.34
O=C(O)CCC1=C(c2ccccc2)NC(=S)NC1c1ccco1 (stereo not given)	1.36

Test system: Rattus norvegicus
Assay: Antiinflammatory activity in Albino rat assessed as reduction of carrageenan-induced paw volume at 20 mg/kg, po administered 1 hr before carrageenan challenge measured after 24 hrs (reference value: 1.39 +/- 0.053 ml)
Format: functional

Compound	Activity [mL]
Cc1ccc(C2=C(CCC(=O)O)C(c3ccco3)NC(=S)N2)cc1 (stereo not given)	1.19
COc1ccc(C2=C(CCC(=O)O)C(c3ccccc3O)NC(=S)N2)cc1 (stereo not given)	1.2
O=C(O)CCC1=C(c2ccc(Cl)cc2)NC(=S)NC1c1ccco1 (stereo not given)	1.39
O=C(O)CCC1=C(c2ccc(F)cc2)NC(=S)NC1c1ccco1 (stereo not given)	1.48
O=C(O)CCC1=C(c2ccc(Cl)cc2)NC(=S)NC1c1ccccc1O (stereo not given)	1.46
O=C(O)CCC1=C(c2ccc(Cl)cc2)NC(=S)NC1c1ccccn1 (stereo not given)	1.3
O=C(O)CCC1=C(c2ccccc2)NC(=S)NC1c1ccccc1O (stereo not given)	1.36
COc1cc(C2NC(=S)NC(c3ccc(C)cc3)=C2CCC(=O)O)cc(OC)c1OC (stereo not given)	1.54
COc1cc(C2NC(=S)NC(c3ccc(C)cc3)=C2CCC(=O)O)ccc1O (stereo not given)	1.55
O=C(O)Cc1ccccc1Nc1c(Cl)cccc1Cl [DICLOFENAC]	1.51
O=C(O)CCC1=C(c2ccccc2)NC(=S)NC1c1ccco1 (stereo not given)	1.16

Test system: Rattus norvegicus
Assay: Antiinflammatory activity in Albino rat assessed as inhibition of carrageenan-induced paw volume at 20 mg/kg, po administered 1 hr before carrageenan challenge measured after 1 hr
Format: functional

Compound	inhibition in vivo at 20 mg/kg [%]
Cc1ccc(C2=C(CCC(=O)O)C(c3ccco3)NC(=S)N2)cc1 (stereo not given)	33
COc1ccc(C2=C(CCC(=O)O)C(c3ccccc3O)NC(=S)N2)cc1 (stereo not given)	28.3
O=C(O)CCC1=C(c2ccc(Cl)cc2)NC(=S)NC1c1ccco1 (stereo not given)	30.4
O=C(O)CCC1=C(c2ccc(F)cc2)NC(=S)NC1c1ccco1 (stereo not given)	24.7
O=C(O)CCC1=C(c2ccc(Cl)cc2)NC(=S)NC1c1ccccc1O (stereo not given)	9.61
O=C(O)CCC1=C(c2ccc(Cl)cc2)NC(=S)NC1c1ccccn1 (stereo not given)	22.1
O=C(O)CCC1=C(c2ccccc2)NC(=S)NC1c1ccccc1O (stereo not given)	33
COc1cc(C2NC(=S)NC(c3ccc(C)cc3)=C2CCC(=O)O)cc(OC)c1OC (stereo not given)	20.5
O=C(O)Cc1ccccc1Nc1c(Cl)cccc1Cl [DICLOFENAC]	21.6
O=C(O)CCC1=C(c2ccccc2)NC(=S)NC1c1ccco1 (stereo not given)	28.8

Test system: Rattus norvegicus
Assay: Antiinflammatory activity in Albino rat assessed as inhibition of carrageenan-induced paw volume at 20 mg/kg, po administered 1 hr before carrageenan challenge measured after 2 hrs
Format: functional

Compound	inhibition in vivo at 20 mg/kg [%]
Cc1ccc(C2=C(CCC(=O)O)C(c3ccco3)NC(=S)N2)cc1 (stereo not given)	28.1
COc1ccc(C2=C(CCC(=O)O)C(c3ccccc3O)NC(=S)N2)cc1 (stereo not given)	27
O=C(O)CCC1=C(c2ccc(Cl)cc2)NC(=S)NC1c1ccco1 (stereo not given)	17.9
O=C(O)CCC1=C(c2ccc(F)cc2)NC(=S)NC1c1ccco1 (stereo not given)	14.2
O=C(O)CCC1=C(c2ccc(Cl)cc2)NC(=S)NC1c1ccccc1O (stereo not given)	14.7
O=C(O)CCC1=C(c2ccc(Cl)cc2)NC(=S)NC1c1ccccn1 (stereo not given)	21.8
O=C(O)CCC1=C(c2ccccc2)NC(=S)NC1c1ccccc1O (stereo not given)	28.6
COc1cc(C2NC(=S)NC(c3ccc(C)cc3)=C2CCC(=O)O)cc(OC)c1OC (stereo not given)	14.2
COc1cc(C2NC(=S)NC(c3ccc(C)cc3)=C2CCC(=O)O)ccc1O (stereo not given)	1.57
O=C(O)Cc1ccccc1Nc1c(Cl)cccc1Cl [DICLOFENAC]	17.9
O=C(O)CCC1=C(c2ccccc2)NC(=S)NC1c1ccco1 (stereo not given)	21.8

Test system: Rattus norvegicus
Assay: Antiinflammatory activity in Albino rat assessed as inhibition of carrageenan-induced paw volume at 20 mg/kg, po administered 1 hr before carrageenan challenge measured after 3 hrs
Format: functional

Compound	inhibition in vivo at 20 mg/kg [%]
Cc1ccc(C2=C(CCC(=O)O)C(c3ccco3)NC(=S)N2)cc1 (stereo not given)	10.4
COc1ccc(C2=C(CCC(=O)O)C(c3ccccc3O)NC(=S)N2)cc1 (stereo not given)	20.9
O=C(O)CCC1=C(c2ccc(Cl)cc2)NC(=S)NC1c1ccco1 (stereo not given)	5.52
O=C(O)CCC1=C(c2ccc(F)cc2)NC(=S)NC1c1ccco1 (stereo not given)	3.68
O=C(O)CCC1=C(c2ccc(Cl)cc2)NC(=S)NC1c1ccccc1O (stereo not given)	1.22
O=C(O)CCC1=C(c2ccc(Cl)cc2)NC(=S)NC1c1ccccn1 (stereo not given)	5.52
O=C(O)CCC1=C(c2ccccc2)NC(=S)NC1c1ccccc1O (stereo not given)	12.9
COc1cc(C2NC(=S)NC(c3ccc(C)cc3)=C2CCC(=O)O)cc(OC)c1OC (stereo not given)	15.9
O=C(O)Cc1ccccc1Nc1c(Cl)cccc1Cl [DICLOFENAC]	20.9
O=C(O)CCC1=C(c2ccccc2)NC(=S)NC1c1ccco1 (stereo not given)	9.81

Test system: Rattus norvegicus
Assay: Antiinflammatory activity in Albino rat assessed as inhibition of carrageenan-induced paw volume at 20 mg/kg, po administered 1 hr before carrageenan challenge measured after 4 hrs
Format: functional

Compound	inhibition in vivo at 20 mg/kg [%]
Cc1ccc(C2=C(CCC(=O)O)C(c3ccco3)NC(=S)N2)cc1 (stereo not given)	4.16
COc1ccc(C2=C(CCC(=O)O)C(c3ccccc3O)NC(=S)N2)cc1 (stereo not given)	7.63
O=C(O)Cc1ccccc1Nc1c(Cl)cccc1Cl [DICLOFENAC]	6.94
O=C(O)CCC1=C(c2ccccc2)NC(=S)NC1c1ccco1 (stereo not given)	5.55

Test system: Rattus norvegicus
Assay: Antiinflammatory activity in Albino rat assessed as inhibition of carrageenan-induced paw volume at 20 mg/kg, po administered 1 hr before carrageenan challenge measured after 24 hrs
Format: functional

Compound	inhibition in vivo at 20 mg/kg [%]
Cc1ccc(C2=C(CCC(=O)O)C(c3ccco3)NC(=S)N2)cc1 (stereo not given)	14.4
COc1ccc(C2=C(CCC(=O)O)C(c3ccccc3O)NC(=S)N2)cc1 (stereo not given)	13.7
O=C(O)CCC1=C(c2ccc(Cl)cc2)NC(=S)NC1c1ccccn1 (stereo not given)	6.47
O=C(O)CCC1=C(c2ccccc2)NC(=S)NC1c1ccccc1O (stereo not given)	2.15
O=C(O)CCC1=C(c2ccccc2)NC(=S)NC1c1ccco1 (stereo not given)	16.5
